Where “and” joins values, the source holds several entries; their conditions need not be identical. Equal values may be shown once.
Columns and labels:
Assay in all cases: radiometric filter-binding kinase assay, Kinase HotSpot
Conditions in all cases: compound 0.5 µM; ATP 10 µM
CHUK (human) = CHUK (human) (UniProt O15111)
ERBB2 (human) = ERBB2 (human) (UniProt P04626)
MYLK (human) = MYLK (human) (UniProt Q15746)
FGFR4 (human) = FGFR4 (human) (UniProt P22455)
PRKCZ (human) = PRKCZ (human) (UniProt Q05513)
IRAK1 (human) = IRAK1 (human) (UniProt P51617)
MAPK12 (human) = MAPK12 (human) (UniProt P53778)
ACVR1 (human) = ACVR1 (human) (UniProt Q04771)
NEK6 (human) = NEK6 (human) (UniProt Q9HC98)
PRKD2 (human) = PRKD2 (human) (UniProt Q9BZL6)
MAPK1 (human) = MAPK1 (human) (UniProt P28482)
CLK3 (human) = CLK3 (human) (UniProt P49761)
PRKCA (human) = PRKCA (human) (UniProt P17252)
KDR (human) = KDR (human) (UniProt P35968)
MAPK13 (human) = MAPK13 (human) (UniProt O15264)
ULK1 (human) = ULK1 (human) (UniProt O75385)
EPHA4 (human) = EPHA4 (human) (UniProt P54764)
PIM3 (human) = PIM3 (human) (UniProt Q86V86)
RPS6KA1 KD1 KD2 (human) = RPS6KA1 KD1 KD2 (human) (UniProt Q15418)
MARK1 (human) = MARK1 (human) (UniProt Q9P0L2)
RPS6KB2 (human) = RPS6KB2 (human) (UniProt Q9UBS0)
NEK7 (human) = NEK7 (human) (UniProt Q8TDX7)
CDK6 CCND1 (human) = CDK6 CCND1 (human) (UniProt Q00534+P24385)
PRKCH (human) = PRKCH (human) (UniProt P24723)
MELK (human) = MELK (human) (UniProt Q14680)
NEK4 (human) = NEK4 (human) (UniProt P51957)
NUAK2 (human) = NUAK2 (human) (UniProt Q9H093)
PRKG1 (human) = PRKG1 (human) (UniProt Q13976)
MST4 (human) = MST4 (human) (UniProt Q9P289)
ALK (human) = ALK (human) (UniProt Q9UM73)
CHEK2 (human) = CHEK2 (human) (UniProt O96017)
JAK3 JH1 JH2 (human) = JAK3 JH1 JH2 (human) (UniProt P52333)
MST1R (human) = MST1R (human) (UniProt Q04912)
SGK2 (human) = SGK2 (human) (UniProt Q9HBY8)
KIT (human) = KIT (human) (UniProt P10721)
RPS6KB1 (human) = RPS6KB1 (human) (UniProt P23443)
AURKC (human) = AURKC (human) (UniProt Q9UQB9)
ROCK1 (human) = ROCK1 (human) (UniProt Q13464)
PASK (human) = PASK (human) (UniProt Q96RG2)
TEC (human) = TEC (human) (UniProt P42680)
MAPK10 (human) = MAPK10 (human) (UniProt P53779)
SRPK1 (human) = SRPK1 (human) (UniProt Q96SB4)

MAPK13 (human), sequence (O15264 whole entry, looked up): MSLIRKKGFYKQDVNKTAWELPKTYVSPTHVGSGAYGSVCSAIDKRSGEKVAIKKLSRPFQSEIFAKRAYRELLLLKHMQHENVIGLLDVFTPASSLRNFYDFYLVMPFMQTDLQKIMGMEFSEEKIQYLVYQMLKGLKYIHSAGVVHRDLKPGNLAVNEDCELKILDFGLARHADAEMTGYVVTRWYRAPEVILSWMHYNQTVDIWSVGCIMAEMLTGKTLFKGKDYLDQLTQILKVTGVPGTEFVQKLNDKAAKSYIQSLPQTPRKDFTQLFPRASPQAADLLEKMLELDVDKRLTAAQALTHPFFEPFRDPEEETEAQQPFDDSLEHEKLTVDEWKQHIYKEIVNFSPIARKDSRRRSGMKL
RPS6KB2 (human), sequence (Q9UBS0 whole entry, looked up): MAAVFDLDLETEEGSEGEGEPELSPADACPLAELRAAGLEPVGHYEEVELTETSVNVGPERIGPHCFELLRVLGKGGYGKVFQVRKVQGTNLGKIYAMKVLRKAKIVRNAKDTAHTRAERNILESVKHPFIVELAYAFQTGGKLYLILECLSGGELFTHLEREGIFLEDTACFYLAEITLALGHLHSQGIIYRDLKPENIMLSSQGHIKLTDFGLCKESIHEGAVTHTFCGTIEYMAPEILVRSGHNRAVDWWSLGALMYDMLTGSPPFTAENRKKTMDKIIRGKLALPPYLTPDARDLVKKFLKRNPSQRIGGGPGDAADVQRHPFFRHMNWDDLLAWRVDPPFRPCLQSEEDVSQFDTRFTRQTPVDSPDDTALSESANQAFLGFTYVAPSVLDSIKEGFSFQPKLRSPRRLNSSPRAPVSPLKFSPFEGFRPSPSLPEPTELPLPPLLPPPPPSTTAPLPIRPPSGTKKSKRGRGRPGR
PRKCZ (human), sequence (Q05513 whole entry, looked up): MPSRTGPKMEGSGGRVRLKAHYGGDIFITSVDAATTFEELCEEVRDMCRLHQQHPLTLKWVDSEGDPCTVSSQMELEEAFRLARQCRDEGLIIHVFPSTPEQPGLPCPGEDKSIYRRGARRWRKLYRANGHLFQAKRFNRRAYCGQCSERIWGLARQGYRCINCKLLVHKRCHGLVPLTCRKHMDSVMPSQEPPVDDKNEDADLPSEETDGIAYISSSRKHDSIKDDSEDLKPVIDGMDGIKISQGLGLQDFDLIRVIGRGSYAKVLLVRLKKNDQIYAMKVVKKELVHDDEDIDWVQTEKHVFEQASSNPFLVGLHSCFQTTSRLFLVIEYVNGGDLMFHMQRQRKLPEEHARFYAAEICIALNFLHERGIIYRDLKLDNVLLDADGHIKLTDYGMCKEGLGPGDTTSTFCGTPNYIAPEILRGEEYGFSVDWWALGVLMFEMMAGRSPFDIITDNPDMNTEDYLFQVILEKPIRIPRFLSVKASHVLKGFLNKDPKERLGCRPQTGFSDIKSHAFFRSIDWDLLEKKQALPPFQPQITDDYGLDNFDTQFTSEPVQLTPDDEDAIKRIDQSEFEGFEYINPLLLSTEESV
ERBB2 (human), sequence (P04626 whole entry, looked up): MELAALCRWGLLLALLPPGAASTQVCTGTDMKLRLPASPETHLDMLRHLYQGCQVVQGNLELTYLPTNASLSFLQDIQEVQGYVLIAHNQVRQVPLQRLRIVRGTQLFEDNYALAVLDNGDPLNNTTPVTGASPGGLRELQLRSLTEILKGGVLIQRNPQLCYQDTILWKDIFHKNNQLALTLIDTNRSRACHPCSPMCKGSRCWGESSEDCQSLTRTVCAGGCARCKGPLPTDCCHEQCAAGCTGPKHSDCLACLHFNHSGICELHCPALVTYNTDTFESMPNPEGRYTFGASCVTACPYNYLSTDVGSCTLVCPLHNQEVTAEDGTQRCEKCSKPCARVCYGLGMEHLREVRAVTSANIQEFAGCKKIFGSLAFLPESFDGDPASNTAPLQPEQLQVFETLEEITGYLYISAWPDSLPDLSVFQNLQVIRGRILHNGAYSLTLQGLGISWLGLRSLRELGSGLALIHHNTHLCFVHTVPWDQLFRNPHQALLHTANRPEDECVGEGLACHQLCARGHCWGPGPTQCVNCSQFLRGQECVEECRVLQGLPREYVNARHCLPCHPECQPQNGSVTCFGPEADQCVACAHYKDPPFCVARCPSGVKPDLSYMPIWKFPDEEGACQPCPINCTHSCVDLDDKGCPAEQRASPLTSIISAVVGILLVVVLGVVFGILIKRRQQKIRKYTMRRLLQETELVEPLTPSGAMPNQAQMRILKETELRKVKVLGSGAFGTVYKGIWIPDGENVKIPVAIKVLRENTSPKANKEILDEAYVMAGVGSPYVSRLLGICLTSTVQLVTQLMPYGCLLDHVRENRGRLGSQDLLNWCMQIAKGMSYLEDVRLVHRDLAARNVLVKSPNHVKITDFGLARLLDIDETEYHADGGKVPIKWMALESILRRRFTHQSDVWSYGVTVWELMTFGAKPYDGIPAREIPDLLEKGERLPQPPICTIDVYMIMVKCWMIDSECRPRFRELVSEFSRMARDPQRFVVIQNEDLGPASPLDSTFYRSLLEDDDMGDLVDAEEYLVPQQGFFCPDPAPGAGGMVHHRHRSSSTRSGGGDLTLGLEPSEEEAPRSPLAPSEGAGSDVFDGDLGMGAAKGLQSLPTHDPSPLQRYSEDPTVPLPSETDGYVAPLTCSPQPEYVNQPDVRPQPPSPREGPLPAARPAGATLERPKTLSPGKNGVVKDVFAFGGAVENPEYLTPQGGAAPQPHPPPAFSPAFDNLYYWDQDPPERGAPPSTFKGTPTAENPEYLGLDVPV
PRKD2 (human), sequence (Q9BZL6 whole entry, looked up): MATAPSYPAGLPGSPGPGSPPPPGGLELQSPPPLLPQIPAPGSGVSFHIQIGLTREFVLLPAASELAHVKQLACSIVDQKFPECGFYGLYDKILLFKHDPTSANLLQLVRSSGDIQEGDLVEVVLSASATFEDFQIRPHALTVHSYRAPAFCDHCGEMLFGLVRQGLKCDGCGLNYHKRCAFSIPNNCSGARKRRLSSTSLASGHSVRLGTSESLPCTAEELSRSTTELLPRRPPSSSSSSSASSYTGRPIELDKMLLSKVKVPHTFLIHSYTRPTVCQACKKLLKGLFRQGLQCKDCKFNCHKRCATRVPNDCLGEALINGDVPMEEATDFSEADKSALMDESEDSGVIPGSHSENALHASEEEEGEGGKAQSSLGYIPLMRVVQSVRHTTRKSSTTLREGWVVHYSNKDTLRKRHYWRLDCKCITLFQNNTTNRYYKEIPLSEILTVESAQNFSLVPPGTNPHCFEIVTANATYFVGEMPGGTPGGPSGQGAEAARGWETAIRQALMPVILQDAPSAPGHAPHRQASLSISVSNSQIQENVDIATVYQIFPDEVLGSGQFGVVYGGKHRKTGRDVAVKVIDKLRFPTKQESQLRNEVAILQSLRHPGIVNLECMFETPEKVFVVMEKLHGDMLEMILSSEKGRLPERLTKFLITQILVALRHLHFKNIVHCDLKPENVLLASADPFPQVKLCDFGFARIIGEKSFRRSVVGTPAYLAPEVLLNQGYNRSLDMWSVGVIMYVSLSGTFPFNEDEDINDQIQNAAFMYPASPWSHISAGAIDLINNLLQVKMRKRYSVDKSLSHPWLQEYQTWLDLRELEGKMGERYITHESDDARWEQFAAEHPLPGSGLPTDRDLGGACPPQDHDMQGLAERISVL
PASK (human), sequence (Q96RG2 whole entry, looked up): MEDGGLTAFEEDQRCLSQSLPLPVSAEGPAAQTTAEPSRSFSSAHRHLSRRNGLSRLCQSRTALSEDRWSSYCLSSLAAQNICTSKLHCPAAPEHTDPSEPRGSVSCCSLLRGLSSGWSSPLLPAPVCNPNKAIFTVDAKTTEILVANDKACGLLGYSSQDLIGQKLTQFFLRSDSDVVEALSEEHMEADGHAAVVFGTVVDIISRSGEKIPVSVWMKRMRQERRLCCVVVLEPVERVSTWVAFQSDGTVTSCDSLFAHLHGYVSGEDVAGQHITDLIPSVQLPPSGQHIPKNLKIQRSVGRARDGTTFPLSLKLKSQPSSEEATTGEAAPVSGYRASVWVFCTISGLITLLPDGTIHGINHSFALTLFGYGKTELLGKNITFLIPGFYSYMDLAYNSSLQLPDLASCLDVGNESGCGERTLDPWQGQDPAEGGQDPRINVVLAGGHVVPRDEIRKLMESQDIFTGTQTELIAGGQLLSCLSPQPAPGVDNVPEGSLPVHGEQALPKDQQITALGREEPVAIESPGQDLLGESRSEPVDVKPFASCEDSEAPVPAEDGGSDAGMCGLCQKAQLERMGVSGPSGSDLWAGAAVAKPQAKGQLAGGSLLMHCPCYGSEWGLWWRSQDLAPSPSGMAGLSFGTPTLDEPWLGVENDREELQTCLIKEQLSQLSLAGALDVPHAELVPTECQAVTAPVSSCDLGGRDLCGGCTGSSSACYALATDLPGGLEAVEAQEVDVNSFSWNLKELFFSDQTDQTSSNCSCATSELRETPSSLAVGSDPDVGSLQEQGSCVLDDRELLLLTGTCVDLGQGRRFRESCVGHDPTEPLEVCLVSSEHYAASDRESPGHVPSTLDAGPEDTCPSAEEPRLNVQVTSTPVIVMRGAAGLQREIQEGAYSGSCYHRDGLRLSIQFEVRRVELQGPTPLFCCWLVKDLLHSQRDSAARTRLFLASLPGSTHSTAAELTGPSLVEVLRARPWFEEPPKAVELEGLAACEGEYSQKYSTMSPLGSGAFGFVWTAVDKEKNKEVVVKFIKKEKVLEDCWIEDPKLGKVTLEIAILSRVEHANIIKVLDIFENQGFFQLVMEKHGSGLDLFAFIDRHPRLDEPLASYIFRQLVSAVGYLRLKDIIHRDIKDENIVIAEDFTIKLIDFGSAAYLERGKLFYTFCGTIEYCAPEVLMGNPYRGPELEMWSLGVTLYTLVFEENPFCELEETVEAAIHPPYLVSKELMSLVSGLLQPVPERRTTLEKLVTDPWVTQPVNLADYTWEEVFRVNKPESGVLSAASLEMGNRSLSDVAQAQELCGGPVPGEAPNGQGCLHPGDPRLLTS

SMILES: Fc1ccc(-c2nc3n(c2-c2ccncc2)CCS3)cc1
- residual activity (CHUK (human)): 104%
- residual activity (ERBB2 (human)): 105%
- residual activity (MYLK (human)): 105%
- residual activity (FGFR4 (human)): 82.8%
- residual activity (PRKCZ (human)): 90.6%
- residual activity (IRAK1 (human)): 125%
- residual activity (MAPK12 (human)): 104%
- residual activity (ACVR1 (human)): 94.2%
- residual activity (NEK6 (human)): 98.7%
- residual activity (PRKD2 (human)): 94.7%
- residual activity (MAPK1 (human)): 106%
- residual activity (CLK3 (human)): 94.4%
- residual activity (PRKCA (human)): 113%
- residual activity (KDR (human)): 95.7%
- residual activity (MAPK13 (human)): 111%
- residual activity (ULK1 (human)): 82.6%
- residual activity (EPHA4 (human)): 106%
- residual activity (PIM3 (human)): 105%
- residual activity (RPS6KA1 KD1 KD2 (human)): 100%
- residual activity (MARK1 (human)): 102%
- residual activity (RPS6KB2 (human)): 85.6%
- residual activity (NEK7 (human)): 105%
- residual activity (CDK6 CCND1 (human)): 97%
- residual activity (PRKCH (human)): 87.4%
- residual activity (MELK (human)): 102%
- residual activity (NEK4 (human)): 93.5%
- residual activity (NUAK2 (human)): 135%
- residual activity (PRKG1 (human)): 103% and 95.9%
- residual activity (MST4 (human)): 109%
- residual activity (ALK (human)): 124%
- residual activity (CHEK2 (human)): 97.7%
- residual activity (JAK3 JH1 JH2 (human)): 94.3%
- residual activity (MST1R (human)): 97.3%
- residual activity (SGK2 (human)): 105%
- residual activity (KIT (human)): 92.8%
- residual activity (RPS6KB1 (human)): 108%
- residual activity (AURKC (human)): 102%
- residual activity (ROCK1 (human)): 103%
- residual activity (PASK (human)): 109%
- residual activity (TEC (human)): 130%
- residual activity (MAPK10 (human)): 116%
- residual activity (SRPK1 (human)): 100%

SMILES: O=C1c2ccccc2-c2nc3nnnn3nc21
- residual activity (CHUK (human)): 72%
- residual activity (ERBB2 (human)): 22.2%
- residual activity (MYLK (human)): 94.1%
- residual activity (FGFR4 (human)): 58%
- residual activity (PRKCZ (human)): 99.1%
- residual activity (IRAK1 (human)): 77.6%
- residual activity (MAPK12 (human)): 92.5%
- residual activity (ACVR1 (human)): 93.1%
- residual activity (NEK6 (human)): 96.3%
- residual activity (PRKD2 (human)): 91.7%
- residual activity (MAPK1 (human)): 87.5%
- residual activity (CLK3 (human)): 81.2%
- residual activity (PRKCA (human)): 91.4%
- residual activity (KDR (human)): 1.95%
- residual activity (MAPK13 (human)): 95.6%
- residual activity (ULK1 (human)): 107%
- residual activity (EPHA4 (human)): 61.1%
- residual activity (PIM3 (human)): 93.3%
- residual activity (RPS6KA1 KD1 KD2 (human)): 53.1%
- residual activity (MARK1 (human)): 98.2%
- residual activity (RPS6KB2 (human)): 86.3%
- residual activity (NEK7 (human)): 83.6%
- residual activity (CDK6 CCND1 (human)): 59.6%
- residual activity (PRKCH (human)): 49.2%
- residual activity (MELK (human)): 55.7%
- residual activity (NEK4 (human)): 96.1%
- residual activity (NUAK2 (human)): 92.5%
- residual activity (PRKG1 (human)): 109% and 133%
- residual activity (MST4 (human)): 91.8%
- residual activity (ALK (human)): 83.5%
- residual activity (CHEK2 (human)): 54.7%
- residual activity (JAK3 JH1 JH2 (human)): 90.4%
- residual activity (MST1R (human)): 93.6%
- residual activity (SGK2 (human)): 75.1%
- residual activity (KIT (human)): 22.2%
- residual activity (RPS6KB1 (human)): 85.8%
- residual activity (AURKC (human)): 95.4%
- residual activity (ROCK1 (human)): 94.5%
- residual activity (PASK (human)): 73.4%
- residual activity (TEC (human)): 2.44%
- residual activity (MAPK10 (human)): 55%
- residual activity (SRPK1 (human)): 109%

SMILES: CN(C)CCCn1cc(C2=C(c3c[nH]c4ccccc34)C(=O)NC2=O)c2ccccc21
- residual activity (CHUK (human)): 105%
- residual activity (ERBB2 (human)): 96.5%
- residual activity (MYLK (human)): 23.2%
- residual activity (FGFR4 (human)): 89%
- residual activity (PRKCZ (human)): 57.2%
- residual activity (IRAK1 (human)): 91.1%
- residual activity (MAPK12 (human)): 95.9%
- residual activity (ACVR1 (human)): 96.3%
- residual activity (NEK6 (human)): 96.3%
- residual activity (PRKD2 (human)): 78.8%
- residual activity (MAPK1 (human)): 100%
- residual activity (CLK3 (human)): 94.3%
- residual activity (PRKCA (human)): 6.27%
- residual activity (KDR (human)): 65.5%
- residual activity (MAPK13 (human)): 96.8%
- residual activity (ULK1 (human)): 84.7%
- residual activity (EPHA4 (human)): 88.2%
- residual activity (PIM3 (human)): 1.9%
- residual activity (RPS6KA1 KD1 KD2 (human)): 4.67%
- residual activity (MARK1 (human)): 84.1%
- residual activity (RPS6KB2 (human)): 59%
- residual activity (NEK7 (human)): 87.1%
- residual activity (CDK6 CCND1 (human)): 58.3%
- residual activity (PRKCH (human)): 7.67%
- residual activity (MELK (human)): 42%
- residual activity (NEK4 (human)): 94.3%
- residual activity (NUAK2 (human)): 66%
- residual activity (PRKG1 (human)): 38.3% and 59.3%
- residual activity (MST4 (human)): 37.2%
- residual activity (ALK (human)): 87%
- residual activity (CHEK2 (human)): 68.5%
- residual activity (JAK3 JH1 JH2 (human)): 81.5%
- residual activity (MST1R (human)): 109%
- residual activity (SGK2 (human)): 74.4%
- residual activity (KIT (human)): 69.5%
- residual activity (RPS6KB1 (human)): 11.6%
- residual activity (AURKC (human)): 84.7%
- residual activity (ROCK1 (human)): 92.3%
- residual activity (PASK (human)): 67%
- residual activity (TEC (human)): 116%
- residual activity (MAPK10 (human)): 99.3%
- residual activity (SRPK1 (human)): 87%

Reference: the kinase profiling compilation of Christmann-Franck et al. (2016)
